Data from patent US5364944A, “Substituted benzoylbenzene-, biphenyl- and 2-oxazole- alkanoic acid compounds” (American Home Products Corporation, priority 1993, dated 1994).
Structures can show the parent of a compound that is named as a salt.

What was measured:
[1] = biological target: T1, LTD4-induced contractions of isolated guinea pig trachea (Cavia porcellus, UniProt Q2NNR5); assay: In vitro isolated guinea pig trachea assay, LTD4 antagonist activity; design: species or system guinea pig (male Hartley)
T1 construct: isolated guinea pig trachea; from tissue; host or cells: tracheal rings of male Hartley guinea pigs
T1 sequence (Q2NNR5 1-340): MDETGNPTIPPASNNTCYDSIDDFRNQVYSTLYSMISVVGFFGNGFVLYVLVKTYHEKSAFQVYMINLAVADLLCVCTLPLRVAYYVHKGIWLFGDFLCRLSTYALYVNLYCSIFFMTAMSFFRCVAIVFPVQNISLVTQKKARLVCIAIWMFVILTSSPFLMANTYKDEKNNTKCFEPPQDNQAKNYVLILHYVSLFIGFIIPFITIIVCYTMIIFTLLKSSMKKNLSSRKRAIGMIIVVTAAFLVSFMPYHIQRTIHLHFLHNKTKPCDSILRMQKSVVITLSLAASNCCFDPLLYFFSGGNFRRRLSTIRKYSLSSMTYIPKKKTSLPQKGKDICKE
Description: The LTD4 antagonist activity of the compounds of the invention is assessed in the in vitro isolated guinea pig trachea assay. This assay is carried out as follows: Male Hartley guinea pigs (350-400 g) are euthanized by a blow to the head, the neck is opened and the trachea removed. The trachea is maintained in aerated physiological salt solution, cleared of connective tissue and fat and cut into rings approximately 2 mm in width (usually containing two cartilaginous segments per ring). Two pieces of silk suture are then passed through the lumen of the tracheal ting and are tied around the cartilage, one on each side of the trachealis muscle. The tracheal ring is suspended between a glass hook and a force displacement transducer in a 10 ml organ bath for measurement of isometric tension. […] The tracheal rings are maintained at 2 g resting tension and equilibrated for 45 minutes (with frequent washing and readjustment of resting tension). The tracheal […] contracted by the addition of carbachol (3×10^-6 M), to determine tissue responsiveness and establish a reference contraction. On attainment of a stable level of contraction (approximately 30 minutes), the tissues are washed several times until baseline tension has been restored and the re-equilibrated for 30 minutes. The tissues are then incubated for 45 minutes with a test antiagonist (either 1×10^-6 M or 1×10^-5 M) or 10 μl of an appropriate solvent control (control, nontreated). One tissue in each group serves as the control. Twenty minutes prior to the construction of the LTD4 cumulative concentration-response curve, L-[…]×10^-2 M final bath concentration) is added to inhibit bioconversion of LTD4 to LTE4. Only one LTD4 concentration-response curve is constructed in each tissue. All responses to LTD4 in an individual tissue are measured as a percentage of the reference contraction of that tissue to carbachol. LTD4 antagonist activity is determined by comparison of the concentration response curves of LTD4 in the presence and absence of antagonist. Assessment of the relative rightward shift of the antagonist treated curve relative to the solvent (control) treated tissue is calculated as a concentration ratio (Eq. A) and used in subsequent calculations to derive an antagonist pKB value (Eqs. B and C). […] If a compound is found to be active and/or depress the maximal response to LTD4, then a range of concentrations of the test compound should be used generating multiple concentration ratios which would then be used to perform a Schild analysis, and determination of a pA2 value where appropriate.

[2] = system: 5-lipoxygenase in human whole blood; assay: Inhibition of 5-lipoxygenase in human whole blood (LTB4); assay type: cell-based
Description: The assay of this Example measures the ability of the compounds tested to inhibit 5-lipoxygenase in human whole blood.
(§1) This assay is carried out as follows:
Blood is obtained in 50-100 ml quantities from male donors. White blood cell counts and differentials are made. Two ml of blood are placed in a 15 ml polypropylene test tube. Compounds are solubilized in dimethylsulfoxide and diluted 1:10 in 10% bovine serum albumin in phosphate buffered saline, pH 7.4 resulting in a final dimethylsulfoxide concentration of 0.1% in the blood. Then, compounds are added to the blood in a shaking water bath at 37° C. for 10 minutes prior to the addition of 30 μM calcium ionophore (A23187; Sigma). After ionophore administration, whole blood samples are mixed and incubated for 20 minutes at […] in a shaking water bath. Incubation is terminated by placing samples in an ice bath and immediately adding ethylene glycol-bis-(β-aminoethyl ether)-N,N,N',N'-tetraacetic acid (10 mM). Samples are mixed and centrifuged at 1200×g for 15 minutes at 4° C. Preparation of samples for evaluation by RIA or ELISA is carried out by the following protocol. Plasma is removed from sample tubes, placed in 15 ml polypropylene test tubes containing 8 ml methanol, and then vortexed to precipitate protein. Samples are stored at -70° C. overnight. The next day, samples are centrifuged at 200×g for 15 minutes at 4° C. to pellet the precipitate. Samples are dried in a Savant speed vac concentrator, reconstituted to original volume with ice cold RIA or ELISA buffer, and stored at -70° C. until assayed. The assay for eicosanoids (LTB4, TxB2, and PGE2) is performed as described by the manufacturer of the [^3 H]-RIA kit or ELISA kit (LTB4 -Amersham, TxB2 and PGE2 - Caymen Chemical).
The total eicosanoid level in 2 ml of blood is calculated and reported as ng/10^6 neutrophils. […] Drug effects are expressed as percent change from control values.
Compounds tested in vitro are solubilized in dimethylsulfoxide and diluted 1:10 in 10% bovine serum albumin in phosphate buffer saline resulting in a final dimethylsulfoxide concentration of 0.1% in the blood.

LTB4 = assay: Reverse passive Arthus pleurisy assay, inflammatory mediator release: LTB4; assay type: in vivo, rat (male Lewis); details: for % Inhibition of LTB4 Synthesis: 25 mg/kg p.o., 3 hours before challenge; for % Inh LTB4: 10 mg/kg p.o., standard drugs
Description: The compounds of the invention are further tested in the reverse passive Arthus pleurisy assay to evaluate their effectiveness in inflammatory mediator release and/or the fluid and cellular phases of an inflammatory response.
as §1
A reverse passive Arthus reaction is induced in the pleural cavity of male Lewis rats (150-200 g; fasted overnight prior to use) by the intravenous administration of bovine serum albumin (BSA; 4 mg/0.2 ml) followed 30 minutes later by the injection of rabbit anti-BSA (1 mg/0.2 ml; lyophilized IgG fraction; Organon Teknika, West Chester, Pa.) into the right pleural space under halothane anesthesia. […] Animals are sacrificed at either the time of peak eicosanoid production (i.e. 5 minutes after anti-BSA for immunoreactive TxB2 10 minutes for immunoreactive LTB4, 20 minutes for immunoreactive LTC4) or at the time of peak neutrophil infiltration (4 hours after anti-BSA) by CO2 inhalation. The pleural cavity is then exposed, the fluid exudate removed by gentle vacuum aspiration and the volume of exudate is recorded. For the determination of cellular infiltration, the pleural cavity is rinsed with 3 ml of 0.1% EDTA in sterile saline, and the recovered wash is pooled with the exudate. Cell number is determined on a model ZBI Coulter counter. For determination of eicosanoid production, undiluted pleural exudate is microfuged and the supernatant is extracted with ethanol (8-10 times volume). Extracts are either stored at -20° C., or are evaporated to dryness under a stream of N2 and reconstituted in radioimmunoassay (RIA) buffer.
Eicosanoids are quantitated by RIA according to the procedure specified by the RIA kit manufacturer (Advanced Magnetics, Cambridge, Mass.). Briefly, 100 μl of ^3 H-labeled eicosanoid and 100 μl of specific antibody are sequentially added to 100 μl of extracted pleural exudate in BGG -phosphate buffer which contains 0.01 M phosphate, 0.1% bovine gamma globulin and 0.1% sodium azide at pH 7.0. Antibody-bound eicosanoid is separated from unbound eicosanoid by the addition of 750 μl of dextran (0.4%)-coated charcoal (0.4% Norit A) containing 0.1% sodium azide. The mixture is centrifuged at 2000 RPM at 5° C. for 15 minutes to pellet the charcoal and adsorbed unbound eicosanoid. Antibody-bound labeled eicosanoid is quantitated by counting in a liquid scintillation counter, and is correlated to concentration by a standard curve.
Inflammatory cells are expressed as 10^6 cells/ml, pleural exudate is expressed as ml of fluid, and the amount of eicosanoids in the pleural cavity is expressed as ng/ml of exudate. Mean ±S.E.M. is determined for each group. Percent inhibition (% I) of cell number, exudate volume and eicosanoid production is calculated for vehicle-treated control groups, and the responses in drug-treated rats are then expressed as the mean % I of the control. […] Exp. Ther., 96, 99-113 (1949).

[3] = reference leukotriene antagonists

SMILES	Kb ([1]; 1 × 10^-5 M)	% Inhibition of LTB4 ([2]; at 10 μM)	also measured
CCCc1c(OCCCCc2nnn[nH]2)ccc(C(C)=O)c1O [Ly-171,883, reference compound]			Kb [1, 3]: 36.3 nM
CC(c1ccc(-c2ccc(OCc3csc(-c4ccccc4)n3)cc2)cc1)N(O)C(N)=O (stereo not shown) [Example 38, 1-{1-[4'-(2-Phenylthiazol-4-ylmethoxy)-biphenyl4-yl]-ethyl}-1-hydroxy-urea]		46%	
CN(O)C(=O)Cc1cccc(C(=O)c2ccc(OCc3nc4ccccc4s3)cc2)c1 [Example 30, 2-{3-[4-(Benzothiazol-2-ylmethoxy)-benzoyl]-phenyl}-N-hydroxy-N-methyl-4-acetamide 0,6 ethyl acetate solvate]		96%	% Inhibition of LTB4 Synthesis (LTB4): 21%; IC50 [2]: 980 nM
O=C(O)Cc1ccccc1Nc1c(Cl)cccc1Cl [Diclofenac, reference compound]			% Inh LTB4 (LTB4): 0%
CN(O)C(=O)Cc1ccc(-c2ccc(OCc3csc(-c4ccccc4)n3)cc2)c(F)c1 [Example 27]			IC50 [2]: 1300 nM; % Inhibition of LTB4 ([2]; at 25 μM): 69%
CC(=O)N(O)C(C)c1ccc(-c2ccc(OCc3csc(-c4ccccc4)n3)cc2)cc1 (stereo not shown) [Example 39, N-{1-[4'-(2-Phenylthiazol-4-ylmethoxy)-biphenyl-4-yl]-ethyl}-N-hydroxy-acetamide]		43%	
O=S(=O)(Nc1cccc(OCc2ccc3ccccc3n2)c1)C(F)(F)F [Wy-48,252, reference compound]			Kb [1, 3]: 126 nM
CC(C(=O)O)c1cccc(C(=O)c2ccccc2)c1 (stereo not shown) [ketoprofen, reference compound]			% Inh LTB4 (LTB4): 35%
CC(=O)N(O)C(C)c1ccc(-c2ccc(OCc3nc4ccccc4o3)cc2)cc1 (stereo not shown) [Example 36, N-{1-[4'-(Benzoxazol-2-ylmethoxy)-biphenyl-4-yl]ethyl}-N-hydroxy-acetamide]		77%	
O=C(O)CCc1nc(-c2ccc(OCc3ccc4ccccc4n3)cc2)c(-c2ccccc2)o1 [Example 10]			% Inhibition of LTB4 Synthesis (LTB4): 65%
CN(O)C(=O)Cc1ccc(-c2ccc(OCc3csc(-c4ccccc4)n3)cc2)cc1 [Example 19, N-Hydroxy-N-methyl-4'-[(2-phenylthiazol-4-yl)methoxy][1,1'-biphenyl]-4-acetamide, sodium salt, sesquihydrate]			% Inhibition of LTB4 ([2]; at 25 μM, sodium salt, sesquihydrate): 83%
O=C(O)CCc1nc(-c2ccc(OCc3ccc4ccccc4n3)cc2)c(-c2ccccc2)o1 [Example 5, 5-Phenyl-4-[4-(2-Quinolinylmethoxy)phenyl]-2-oxazole propanoic acid]	316 nM		% Inhibition of LTB4 ([2]; at 25 μM): 11%
CC(c1ccc(-c2ccc(OCc3nc4ccccc4s3)cc2)c(F)c1)N(O)C(N)=O (stereo not shown) [Example 40, 1-{1-[4'-(Benzothiazol-2-ylmethoxy)-2-fluoro(1,1'-biphenyl)-4-yl]ethyl}-1-hydroxy-urea]		47%	
CN(O)C(=O)Cc1ccc(-c2ccc(OCc3ccc4ccccc4n3)cc2)c(F)c1 [Example 8, N-Hydroxy-N-methyl-2-fluoro-4'-(2-quinolinylmethoxy)-[1,1'-biphenyl]-4-acetamide]			IC50 [2]: 530 nM; % Inhibition of LTB4 ([2]; at 25 μM): 94%

More lines, main results first:

Kb ([1]; 1 × 10^-5 M)	SMILES	% Inhibition of LTB4 ([2]; at 10 μM)	also measured
> 7940 nM	O=C(Cc1ccc(-c2ccc(OCc3nc4ccccc4s3)cc2)cc1)NO [Example 14, N-Hydroxy-4'-(2-benzothiazolylmethoxy)[1,1'-biphenyl]-4-acetamide]		% Inhibition of LTB4 ([2]; at 25 μM): 5%
> 3160 nM	CC(=O)N(O)C(C)c1ccc(-c2ccc(OCc3nc4ccccc4n3C)cc2)cc1 (stereo not shown) [Example 37]	61%	
> 3980 nM	CN(O)C(=O)Cc1ccc(-c2ccc(OCc3ccccn3)cc2)c(F)c1 [Example 28, 2-Fluoro-N-hyroxy-N-methyl-4'-(2-pyridinylmethoxy)[1,1'-biphenyl]-4-acetamide]	66%	IC50 [2]: 2300 nM
> 10000 nM	CC(=O)N(O)C(C)c1ccc(-c2ccc(OCc3nc4ccccc4s3)cc2)cc1 (stereo not shown) [Example 34, N-{1-[4'-(Benzothiazol-2-ylmethoxy)-biphenyl4-yl]-ethyl}-N-hydroxy-acetamide]	36%	
> 5010 nM	CC(c1ccc(-c2ccc(OCc3nc4ccccc4o3)cc2)cc1)N(O)C(N)=O (stereo not shown) [Example 35]	51%	
> 7940 nM	CN(O)C(=O)C(Cc1csc(-c2ccccc2)n1)c1ccc(-c2ccc(OCc3csc(-c4ccccc4)n3)cc2)cc1 (stereo not shown) [Example 25]		
631 nM	CN(O)C(=O)Cc1ccc(-c2ccc(OCc3nc4ccccc4n3C)cc2)c(F)c1 [Example 29, 2-[2-Fluoro-4'-(1-methyl-1H-benzimidazol-2-ylmethoxy)biphenyl-4-yl]-N-hydroxy-N-methyl-4-acetamide]	74%	IC50 [2]: 700 nM
